This note sets out measurements from patent US20250311759A1, “ORGANIC COMPOUNDS” (GIVAUDAN SA, priority 2022, published 2025).

Assay type in all cases: in vivo
Experiment [1] concerns sensory panel. Briefly: Effect on commercially available mayonnaise, sensory panel. The following applies: 70 ppm in mayonnaise. An excerpt:
Samples of commercially available mayonnaise with and without addition of 1H-imidazole have been compared by a sensory panel.
Samples of commercially available mayonnaise with addition of 2-(1H-imidazol-4-yl)acetic acid or benzimidazole and without have been compared by a sensory panel.

Experiment [2] deals with sensory panel. Briefly: Effect on corn curls with cheese flavor, sensory panel. An excerpt:
Corn curls with cheese flavor with and without addition of 1H-imidazole have been compared by a sensory panel.
Corn curls with cheese flavor with addition of 2-(1H-imidazol-4-yl)acetic acid or benzimidazole and without have been compared by a sensory panel.

In experiment [3] the test system is sensory panel. In words: Effect on commercially available ketchup, sensory panel. An excerpt: Samples of commercially available ketchup with and without addition of 2-(1H-imidazol-4-yl)acetic acid or benzimidazole have been compared by a sensory panel.
Experiment [4] deals with sensory panel. Briefly: Salt enhancement in aqueous NaCl solution, sensory panel. As to conditions: for taste description versus 0.5% NaCl solution: 50 ppm in 0.5% NaCl. An excerpt: Two aqueous solutions have been prepared: • A) 0.3% NaCl, and • B) 0.3% NaCl and 100 ppm of 1H-imidazole.
The solutions were tasted by a sensory panel. Solution A was described as “salty”.
Two aqueous solutions have been prepared: • A) 0.5% NaCl, and • B) 0.5% NaCl and 50 of ppm of 4-methyl-1H-imidazole.
The solutions were tasted by a sensory panel. Solution A was described as “salty”. Solution B was described as more salty in comparison to solution A.
Two aqueous solutions have been prepared: • A) 0.5% NaCl, and • B) 0.5% NaCl and 50 ppm of (2E)-3-(1H-imidazol-4-yl)prop-2-enoic acid (urocanic acid).
The following aqueous solutions have been prepared: • A) 0.3% NaCl, • B) 0.3% NaCl and 90 ppm of 2-(1H-imidazol-4-yl)acetic acid, and • C) 0.3% NaCl and 80 ppm of benzimidazole. • The solutions were tasted by a sensory panel. Solution A was described as “salty”.

Experiment [5] deals with sensory panel. Briefly: Bitter masking in aqueous KCl solution, sensory panel. An excerpt:
Two aqueous solutions have been prepared: • A) 0.3% KCl, and • B) 0.3% KCl and 70 ppm of 1H-imidazole.
(§1) The solutions were tasted by a sensory panel.
The following aqueous solutions have been prepared: • A) 0.3% KCl, and • B) 0.3% KCl and 100 ppm of 2-(1H-imidazol-4-yl)acetic acid, and • C) 0.3% KCl and 100 ppm of benzimidazole.

Experiment [6] relates to sensory panel. Briefly: Effect on model broth base, sensory panel.
Description: A model broth base, comprising 0.3% of NaCl was compared with a sample further comprising 100 ppm of 1H-imidazole.
as §1
A model broth base, comprising 0.3% of NaCl was compared with a sample further comprising 70 ppm of 2-(1H-imidazol-4-yl)acetic acid, and 100 ppm of benzimidazole, respectively.
The solutions were tasted by a sensory panel. […] The solution comprising benzimidazole was preferred.

The subject of experiment [7] is sensory panel. Briefly: Effect on commercially available cheese sauce, sensory panel. An excerpt: The effect of 1H-imidazole on a commercially available cheese sauce was explored.
Therefore, a cheese sauce has been compared by a sensory panel with a sample of the sauce further comprising 70 ppm of 1H-imidazole.
The effect of 2-(1H-imidazol-4-yl)acetic acid on a commercially available cheese sauce was explored. Therefore, a cheese sauce has been compared by a sensory panel with a sample of the sauce further comprising 50 ppm of 2-(1H-imidazol-4-yl)acetic acid.

The test system of experiment [8] is sensory panel. Briefly: Effect on soy based vegan burger, sensory panel. The following applies: 70 ppm in soy based vegan burger; initial peak and last phase of salt perception. An excerpt: Soy based vegan burgers with and without 1H-imidazole have been tasted by a sensory panel.
Experiment [9] has as its system sensory panel. In words: Effect on potato chips, sensory panel. The following applies: 70 ppm, potato chips with 1.5% salt. An excerpt: Potato chips with 1.5% salt have been tasted by a sensory panel with and without 1H-imidazole.
For experiment [10], the system named is sensory panel. Briefly: Umami enhancement in savoury model solution (NaCl, MSG, Ribotides), sensory panel. As to conditions: 100 ppm in 0.5% NaCl, 0.03% MSG, 0.007% Ribotides. An excerpt:
Two aqueous solutions have been prepared: • A) 0.5% NaCl, 0.03% MSG, 0.007% Ribotides, and • B) 0.5% NaCl, 0.03% MSG, 0.007% Ribotides and 100 ppm of 1H-imidazole.
The solutions were tasted by a sensory panel. Solution A is a model solution for savoury taste, containing MSG (monosodium glutamate) and Ribotides (IMP/GMP, 50/50 mixture) as savoury taste enhancer.

[11] abbreviates: 150 ppm on corn curls with cheese flavor.
The mark [12] stands for this setting: 100 ppm in model broth base comprising 0.3% NaCl.

The structures appear in SMILES notation.

Turning to `c1ccc2[nH]cnc2c1` [benzimidazole], the “taste description versus pure mayonnaise” value with sensory panel [1] is reported as “clearly more salty with a less sour impression”. Moreover, in the experiment with sensory panel [2] (setting [11]), the “taste description versus corn curls without compound” value was “saltier, and the rich profile was enhanced”. The “taste description versus pure ketchup” value in the experiment on sensory panel [3] (70 ppm in ketchup) was “clearly more salty”. Also, the “taste description versus 0.3% NaCl solution” value in the experiment on sensory panel [4] (80 ppm in 0.3% NaCl) is listed as “clearly more salty with a sour fresh background”. The “taste description versus 0.3% KCl solution” value with sensory panel [5] (100 ppm in 0.3% KCl) was “less bitter, less metallic and more salty”. Moreover, the “panel preference in broth” value in the experiment on sensory panel [6] (100 ppm benzimidazole versus 70 ppm 2-(1H-imidazol-4-yl)acetic acid in model broth base) is “preferred”. Besides, in the experiment on sensory panel [6] (setting [12]), the “taste description versus model broth base” value is “more mineral and salty”.

Turning to `Cc1c[nH]cn1` [4-methyl-1H-imidazole], the “taste description versus 0.5% NaCl solution” value in the experiment with sensory panel [4] is reported as “more salty”.

Take `O=C(O)Cc1c[nH]cn1` [2-(1H-imidazol-4-yl)acetic acid]: the “taste description versus pure mayonnaise” value in the experiment on sensory panel [1] is on record as “clearly more salty with a less sour impression”. For the same compound, the “taste description versus cheese sauce” value in the experiment with sensory panel [7] (50 ppm in cheese sauce) is “preferred, having more saltiness and umami character”. In the experiment on sensory panel [2] (setting [11]), the “taste description versus corn curls without compound” value was “saltier, and the rich profile was enhanced”. In addition, the “taste description versus pure ketchup” value in the experiment with sensory panel [3] (100 ppm in ketchup) is “clearly more salty, sour lingering and less sweet”. In the experiment on sensory panel [4] (90 ppm in 0.3% NaCl), the “taste description versus 0.3% NaCl solution” value is given as “clearly more salty with a minearlic note”. In the experiment with sensory panel [5] (100 ppm in 0.3% KCl), the “panel preference / KCl masker rating” value is on record as “preferred over solution C”; the “taste description versus 0.3% KCl solution” value is “less bitter, less metallic and more salty”. Also, in the experiment with sensory panel [6] (70 ppm in model broth base comprising 0.3% NaCl), the “taste description versus model broth base” value was “more mineral and salty”.

Take `O=C(O)/C=C/c1c[nH]cn1` [urocanic acid, (2E)-3-(1H-imidazol-4-yl)prop-2-enoic acid]: the “taste description versus 0.5% NaCl solution” value with sensory panel [4] was “more salty”.

Regarding `c1c[nH]cn1` [1H-imidazole], the “taste description versus pure mayonnaise” value in the experiment with sensory panel [1] is “clearly more salty and had a stronger acetic acid character”. Further, the “taste description versus burger without compound” value in the experiment with sensory panel [8] was “more salty”. Also, in the experiment on sensory panel [7] (70 ppm in cheese sauce), the “taste description versus cheese sauce” value was “more mineral and salty”. Moreover, in the experiment with sensory panel [9], the “taste description versus potato chips without compound” value was “higher salty impact and a lingering effect”. Also, the “taste description versus corn curls without compound” value in the experiment with sensory panel [2] (100 ppm on corn curls with cheese flavor) is “saltier, and the rich profile was enhanced”. Moreover, in the experiment on sensory panel [4] (100 ppm in 0.3% NaCl), the “taste description versus 0.3% NaCl solution” value is “clearly more salty with a mineralic note, low acidity, some astringency and freshness”. Besides, the “taste description versus 0.3% KCl solution” value with sensory panel [5] (70 ppm in 0.3% KCl) is “less metallic and more salty”. Also, the “taste description versus savoury model solution” value with sensory panel [10] was “strong boost of saltiness and umami”. Besides, the “taste description versus model broth base” value with sensory panel [6] (setting [12]) is “more mineral and salty as well as more umami”.
